Where “and” joins values, the source holds several entries; their conditions need not be identical. Identical values can stand only once. Like-named read-outs stand apart in the source and are kept apart here. Ends that are not written are not given here. Where only a bound is given, the exact number is not on record here.

The test system of data set [1] is T1, nicotinic cholinergic receptor.
T1 construct: nicotine 30 μM, PC12 cells, 30 min; other: Hill plot, nicotine 30 μM, PC12 cells; other: screening at 0.5 μM and 5 μM doses; nicotine 30 μM, PC12 cells; other:
The experiment in a line: Nicotine-stimulated [3H]-norepinephrine (catecholamine) secretion from PC12 cells. It is filed as cell-based, rat. As to conditions: for IC50 / Hill slope (cooperativity of inhibition of secretion): nicotine 30 μM, PC12 cells; for Hill slope (cooperativity of inhibition of secretion): Hill plot; for Norepinephrine secretion at ascending nicotine doses (noncompetitive inhibition): nicotine 10 to 1000 μM, PC12 cells (FIG. 3C); for Inhibition of catecholamine release triggered by nicotine: nicotine stimulation, PC12 cells (FIG. 3B). Here is the method: (§1) Rat PC12 pheochromocytoma cells were grown at 37° C. with 6% CO2, in 12-well plates, in Dulbecco's modified Eagle's medium (high glucose) supplemented with fetal bovine serum, horse serum, and penicillin/streptomycin. Secretion assays were performed as described previously (N. Biswas, et al., Endocrinology, 149 (2008), 749-757). Cells were labeled for 3 h with 1 μCi/mL of [^3H]-norepinephrine (NET678, Perkin-Elmer, Waltham, Mass.), then washed three times with basal medium and one time with secretion buffer. Subsequently, the cells were incubated for 30 min with or without the agonist nicotine (30 μM), in the presence or absence of test compounds (0.5 μM or 5 μM). For IC50 determinations, secretion assays were performed in the presence of increasing concentrations of test compounds. The extracellular secretion medium and the cell lysates were collected for [^3H]-norepinephrine measurement by liquid scintillation counting. Results were expressed as percent secretion:
(§2) % secretion=[amount released/(amount released+amount in lysate)]×100.
(§3) Net secretion was calculated as agonist-stimulated release minus basal release. To establish the specificity of secretory inhibition by test compounds, in some experiments catecholamine release was triggered with other classes of secretagogues that bypass the nicotinic cholinergic pathway: membrane depolarization (55 mM KCl); P2x purinergic receptor stimulation (100 μM ATP); K^+ (repolarizing) channel blockade (2 mM BaCl2 in the absence of extracellular Ca^2+); or a Ca^2+ ionophore (1 μM ionomycin).
Actions of test compounds were compared with the classical noncompetitive nicotinic antagonist chlorisondamine, wherein labeled cells were incubated with different doses of nicotine in the presence or absence of peptide antagonists or chlorisondamine (5 μM).

Another data set has as its system nicotinic receptors. The experiment in a line: Nicotine-induced 45Ca2+ uptake by PC12 cells. The data set is classed as cell-based, rat. As to conditions: nicotine 30 μM, read-out: IC50 for inhibition of nicotine-induced 45Ca2+ uptake. Here is the method: Nicotinic cholinergic secretory responses in the chromaffin cells are triggered by an early influx of calcium. To test the ability of the compounds to interfere at this early stage of signal transduction, PC12 cells were stimulated with nicotine (30 μM) in the presence or absence of test compounds and agonist-mediated uptake of ^45Ca^2+ was measured. ^45Ca^2+ uptake was performed as described previously with minor modifications S. K. Mahata et al., J. Clin. Invest., 100 (1997), 1623-1633). Briefly, PC12 cells were grown on poly-L-lysine coated 6-well culture dishes, and were washed with 1 mL release buffer (150 mmol/L NaCl, 5 mmol/L KCl, 2 mmol/L CaCl2, 10 mmol/L Hepes buffer, pH 7.4) every 15 minutes for 1 hour at 37° C. Cells were then pre-incubated for 1 min in release buffer in the presence or absence of test compounds. Cells were incubated for 2 min with 1 mL of Ca^2+-free release buffer containing 2 μCi of ^45Ca^2+ (catalog number NEZ01300, Perkin-Elmer), 30 μM nicotine in the presence or absence of test compounds. Thereafter, Ca^2+ uptake was terminated by the addition of 2 mL of ice-cold Ca^2+-free secretion medium containing 2 mmol/L EGTA and 1 mmol/L LaCl3, and further washed six times with 2 mL of the same buffer. Cell lysis buffer (secretion medium containing 0.1% Triton X-100, 1 mL) was then added, and the lysate was collected for liquid scintillation counting.

For data set [2], the system named is PC12 cells. The experiment in a line: Basal [3H]-norepinephrine secretion from PC12 cells. It is filed as cell-based, rat. As to conditions: no agonist. Here is the method:
as §1, §2
The compounds were also tested to determine their effect on basal secretion.

Data set [3] deals with PC12 cells. Kind of data set: Catecholamine release triggered by secretagogues that bypass the nicotinic cholinergic pathway (KCl, ATP, BaCl2, ionomycin). It is filed as cell-based, rat. As to conditions: 55 mM KCl, 100 μM ATP, 2 mM BaCl2, 1 μM ionomycin. Here is the method:
as §3
In addition to nicotinic-cholinergic stimulation, several secretagogues that act at later stages in the secretory pathway than the nicotinic receptor were tested, including membrane depolarization (by KCl), or blockade of repolarization (by Ba^2+). In addition, secretagogues that act on different targets from the nicotinic-cholinergic receptor, such as P2x (ATP) or artificial Ca^2+ pores (Ca^2+ ionophore ionomycin) were used.

The test system of data set [4] is BPH/2J polygenic hypertensive mice. Kind of data set: Telemetric continuous intra-arterial blood pressure and heart rate in hypertensive BPH/2J mice. It is filed as in vivo, mouse. As to conditions: 5 μg/g body weight i.p. The text has this:
Telemetric measurement of blood pressure (BP) in conscious hypertensive mice (polygenic hypertensive BPH/2J mouse model; F. A. Wright et al., Hypertension, 34 (1999), p. 625-630) was achieved using a Data Sciences International (DSI; Transoma Medical) Physiol Tel telemetry system, implanting a catheter coupled to a TA11PA-C20 (DSI) transmitter, as described (N. R. Mahapatra et al., J. Clin. Invest., 115 (2005), 1942-1952). The animals and implants were left to stabilize for ten days after surgery. BPH/2J polygenic hypertensive mice (n=7/group) were then treated with test compound (5 μg/g body weight, intra-peritoneal; or vehicle). BP and heart rate (HR) were measured continuously over 24 hours, before and after compound administration.

Data set [5] concerns the target nicotinic cholinergic receptor. As to conditions: Mahata et al., Mol. Pharmacol. 66 (2004); read-out: IC50 of human catestatin, previously measured; cited from earlier work.
[6] abbreviates: Table 1, 30 min, read-out: IC50: concentration that achieves 50% inhibition of secretion.
Where [7] appears, read: increasing compound doses, read-out: IC50 from secretion assays with increasing compound doses.

`Nc1nc(N)c2nc(CNc3ccc(C(=O)N[C@@H](CCC(=O)O)C(=O)O)cc3)cnc2n1` [TKO-10-1]: in data set [1] (setting [6]), the IC50 is above 5 µM.
`O=C(Nc1cc(C2=NCCN2)cc(C2=NCCN2)c1)Nc1cc(C2=NCCN2)cc(C2=NCCN2)c1` [TKO-10-2]: in data set [1] (setting [6]), the IC50 was above 5 µM.
On to `C/N=C(\NC)c1ccc(/N=C(\NC)c2ccc(/C(=N/c3ccc(/C(=N/C)NC)cc3)NC)cc2)cc1` [TKO-10-3], for which the IC50 in data set [1] (setting [6]) turned out to be 1.7 µM.
For `C/N=C(/NC)c1ccc(NC(=O)Nc2cccc(NC(=O)Nc3ccc(/C(=N\C)NC)cc3)c2)cc1` [TKO-10-4], the IC50 in the data set with nicotinic receptors was ~0.07 µM and 0.07 µM; in data set [1] (setting [6]), 0.23 µM; in data set [1] (setting [7]), 0.041 µM.
For the compound `CNC(=O)c1cc(NC(=O)Nc2cccc(C3=NCCN3)c2)cc(NC(=O)Nc2cccc(C3=NCCN3)c2)c1` [TKO-10-5], the IC50 with nicotinic receptors was ~0.1 µM and 0.1 µM; in data set [1] (setting [6]), 1.1 µM; in data set [1] (setting [7]), 1 µM. Besides, in the data set on PC12 cells [2], the “Effect on basal secretion (~5% 3H-NE release)” value is “remained unaltered”. In addition, in data set [1], the “Hill slope (cooperativity of inhibition of secretion)” value is recorded as “near unity”. Besides, the “Norepinephrine secretion at ascending nicotine doses (noncompetitive inhibition)” value in data set [1] (30 min) is “reduced norepinephrine secretion significantly”. Besides, the “Inhibition of catecholamine release triggered by nicotine” value in data set [1] is “significantly inhibited catecholamine release”. The “Inhibition of catecholamine release caused by agents acting distal to the receptor or on other receptor classes” value with PC12 cells [3] is “not when secretion was caused by agents acting distal to the receptor, or on other receptor classes”.
`CNC(=N)c1ccc(NC(=N)c2ccc(Cl)c(C(=N)Nc3ccc(C(=N)NC)cc3)c2)cc1` [TKO-10-6]: the IC50 in data set [1] (setting [6]) came to 1.8 µM.
For the compound `C/N=C(/NC)c1ccc(NC(=O)Nc2ccc(C)c(NC(=O)Nc3ccc(/C(=N\C)NC)cc3)c2)cc1` [TKO-10-7], the IC50 is ~0.1 µM and 0.1 µM in the data set on nicotinic receptors; 0.29 µM in data set [1] (setting [6]); 0.024 µM in data set [1] (setting [7]).
Take `CCN/C(=N/c1cccc(C2=NCCN2)c1)c1ccc(/C(=N\c2cccc(C3=NCCN3)c2)NCC)cc1` [TKO-10-8]: the IC50 in data set [1] (setting [6]) was 1.6 µM.
`CNC(=O)c1ccc(NC(=O)Nc2cccc(C3=NCCN3)c2)cc1NC(=O)Nc1cccc(C2=NCCN2)c1` [TKO-10-9]: the IC50 in data set [1] (setting [6]) stood at 1.4 µM.
Still for that read-out and setting: the result for `Nc1nc(N)c(-c2ccc(Cl)cc2)c(CCc2ccc(NC(=O)CBr)cc2)n1` [TKO-10-10] reads 1.5 µM; that for `Cc1ccnc(NS(=O)(=O)c2ccc(/N=N/c3cc(/N=N/c4ccccc4)c(N)nc3N)cc2)n1` [TKO-10-11], above 5 µM.
Same read-out and setting: the result for `Nc1nc(N)c(/N=N/c2ccc(S(=O)(=O)Nc3ncccn3)cc2)cc1/N=N/c1ccccc1` [TKO-10-12] reads 2 µM; that for `Cc1cc(NC(=O)NCc2ccc(N3C(N)=NC(N)=NC3(C)C)cc2)ccc1S(=O)(=O)F` [TKO-10-13], 0.87 µM.
In the case of `CCN(CC)CC(O)CNc1cc(C)nc(NC(=N)Nc2ccc(Cl)c(Cl)c2)n1` (stereo not drawn) [TKO-10-14], the “Effect on basal secretion (~5% 3H-NE release)” value with PC12 cells [2] is reported as “remained unaltered”. In addition, the IC50 in data set [1] (setting [6]) was determined as 0.68 µM. The “Norepinephrine secretion at ascending nicotine doses (noncompetitive inhibition)” value in data set [1] (30 min) was “reduced norepinephrine secretion significantly”. In data set [1], the “Inhibition of catecholamine release triggered by nicotine” value was “significantly inhibited catecholamine release”. Also, the “Inhibition of catecholamine release caused by agents acting distal to the receptor or on other receptor classes” value in the data set on PC12 cells [3] was “not when secretion was caused by agents acting distal to the receptor, or on other receptor classes”.
`CC1(C)N=C(N)N=C(N)N1c1cccc(CNC(=O)Nc2ccccc2)c1` [TKO-10-15]: in data set [1] (setting [6]), the IC50 was above 5 µM.
Same read-out and setting: the result for `CCN1CCC(CNc2cc(C)nc(NC(=N)Nc3ccc(Cl)c(Cl)c3)n2)C1` (stereo not drawn) [TKO-10-16] reads 0.45 µM.
Still for that read-out and setting: the result for `CCN1CCC(CNc2cc(C)nc(NC(=N)Nc3cc(Cl)cc(Cl)c3)n2)C1` (stereo not drawn) [TKO-10-17] reads 1.9 µM.
As to `C/C(=N\NC(=N)N)c1cccc(NC(=S)Nc2cccc(/C(C)=N/NC(=N)N)c2)c1` [TKO-10-18], the IC50 with nicotinic receptors is ~0.09 µM and 0.09 µM. Moreover, in data set [1], the “Hill slope (cooperativity of inhibition of secretion)” value is “near unity”. Also, in data set [1] (setting [6]), the IC50 was 0.18 µM. In addition, the IC50 in data set [1] (setting [7]) turned out to be 0.017 µM. In data set [4], the “Fall in heart rate (HR)” value was around 180 beats/min, the “Reflex tachycardia after fall in BP” value is “not accompanied by reflex tachycardia”, the “Time by which BP declines were apparent” value was in the range of 10 to 30 min and the “Time for which BP declines were maintained” value is listed as at most 60 min. Further, the “Reduction in DBP” value in data set [4] (initial DBP 104.9±0.1 mmHg) was around 25 mmHg. The “Reduction in SBP” value in data set [4] (initial SBP 145.0±0.6 mmHg) is listed as around 33 mmHg.
`Nc1ccc(CCCCc2nc(N)nc(N)c2-c2ccc(Cl)c(Cl)c2)cc1` [TKO-10-19]: in data set [1] (setting [6]), the IC50 is 2.6 µM.
Same read-out and setting: for `CCN1CCCC(CNc2cc(C)nc(NC(=N)Nc3ccc(Cl)c(Cl)c3)n2)C1` (stereo not drawn) [TKO-10-20] the value was 1.1 µM.
With “SSMKLSFRARAYGFRGPGPQL [Human catestatin]”, the IC50 in data set [5] was 0.82 µM.

Values taken from patent publication US20160152560A1, “Compounds for the treatment of hypertension and hypertensive end stage renal disease” (THE REGENTS OF THE UNIVERSITY OF CALIFORNIA, priority 2013, published 2016).
